Values of other authors as cited in US11969487B2, “Non-cellular root canal filling material and non-cellular dental tissue regeneration promoting kit” (Kowa Company, Ltd., priority 2017, dated 2024).
Read-outs that look alike come from different tables or passages of the source.

Assays:
[1] = test system: dental pulp stem cells on dentin surfaces; conditions: dental pulp stem cells seeded on treated dentin surfaces in vitro
[2] = test system: dental pulp regeneration in dogs

## trypsin
[1]
  adhesion of the cells: increased
  differentiation into odontoblasts: promotion of differentiation into odontoblasts was observed
[2]; no transplantation of dental pulp stem cells
  dental pulp regeneration: hardly observed
[2]; root canals pretreated before dental pulp stem cell transplantation, middle-aged and elderly individuals
  dental pulp regeneration: promoted
[2]; young dogs
  effect of pretreatment on the dental pulp regeneration: no effect
